{
  "source": "paper PMC10447287",
  "about": "“Optimisation of Pharmaceutical Cocrystal Dissolution Performance through a Synergistic Precipitation Inhibition” (Pharmaceutical Research, 2023)",
  "experiment": "FFA-NIC cocrystal solubility and phase solubility diagrams (PSD)",
  "format": "physicochemical",
  "settings": "for FFA concentration at eutectic point / Ksp / SAB: 37°C",
  "experimental": "For a 1:1 AB cocrystal without consideration of ionization of each component, its molar solubility SAB is calculated as [21]1 SAB=Ksp=CACB where Ksp is the solubility product of the AB cocrystal, and CA and CB (μmol/mL) are the molar concentrations of A and B where the solution is in equilibrium with the solid residues including cocrystal solids. When the solution is in equilibrium with both the drug and cocrystal solids, it is called the eutectic point where the component concentrations in solution are designated as CA_eut and CB_eut .\nIn order to determine the FFA-NIC cocrystal solubility, the physical mixtures of the FFA I and NIC solids and a constant 10 mL of the medium (i.e., DDW or PBS pH 4.5 in the absence and presence of a predissolved polymer, i.e., 0.2 mg/mL PVP-VA, 1 mg/mL PEG or 0.2 mg/mL SLP, or a combination, i.e., 0.2 mg/mL PVP-VA + 1 mg/mL PEG, 0.2 mg/mL PVP-VA + 0.2 mg/mL SLP), representing 10% w/w and 90% w/w of the total weight of a sample, were used. More than eight different ratios of the FFA I and NIC solids in the physical mixtures (Table S1 in the supporting materials) were prepared and then each of them was transferred into a 20 mL glass vial containing a magnetic stirrer (3 × 20 mm) with 10 mL of the solution prepared above. The samples were placed in the Polar Bear Plus Crystal (Cambridge Reactor Design Ltd, UK) and kept at 37 ± 0.5°C for 24 h. After that, the supernatant of each of the samples was separated from excess solids by centrifugation at 13,000 RPM for 1 min in an MSE Micro Centaur. HPLC was used to determine the concentrations of FFA and NIC. Solid residues obtained from the experiments were dried at room temperature and analysed by PXRD. If the FFA-NIC cocrystal solids were found in the solid residues of a sample ( i ), the molar concentrations of FFA ( CFFA,iexp ) and NIC ( CNIC,iexp ) (μmol/mL) obtained were used to determine the solubility product Ksp,iexp of FFA-NIC cocrystal by2 Ksp,iexp=CFFA,iexp×CNIC,iexp\nThe optimal solubility product Kspoptimal of FFA-NIC cocrystal is obtained by minimizing the sum square error (SSE) of the optimal value with each of the individual experimental values KSP,iexp .3 Kspoptimal=min∑i=1n(Kspoptimal-ksp,iexp)^2 where n is the total number of vials having the cocrystal solids in the residues.\nIn this work, the optimal value of Kspopitmal was obtained using the inbuilt “fminbnd” function in MATLAB. If both the FFA-NIC cocrystal and FFA I solids were found in the solid residues of a sample, the measured concentrations of FFA ( CFFAexp ) and NIC ( CNICexp ) were the transition concentrations at the eutectic point.",
  "key": {"[1]": {"settings": "DDW with PEG (1 mg/mL) + PVP-VA (0.2 mg/mL)"}, "[2]": {"settings": "DDW with SLP (0.2 mg/mL) + PVP-VA (0.2 mg/mL)"}, "[3]": {"settings": "PBS pH 4.5 with PEG (1 mg/mL) + PVP-VA (0.2 mg/mL)"}, "[4]": {"settings": "PBS pH 4.5 with PVP-VA (0.2 mg/mL)"}, "[5]": {"settings": "PBS pH 4.5 with SLP (0.2 mg/mL)"}, "[6]": {"settings": "PBS pH 4.5 with SLP (0.2 mg/mL) + PVP-VA (0.2 mg/mL)"}},
  "data": [
    {"molecule": "NC(=O)c1cccnc1.O=C(O)c1ccccc1Nc1cccc(C(F)(F)F)c1", "note": "[FFA-NIC cocrystal]", "values": [
      {"measurement": "Ratio of FFA concentration at eutectic point with parent drug", "setting": "DDW with PEG (1 mg/mL)", "result": 4.47},
      {"measurement": "Ratio of FFA concentration at eutectic point with parent drug", "setting": "[1]", "result": 7.27},
      {"measurement": "Ratio of cocrystal solubility with parent drug", "setting": "[1]", "result": 4382.27},
      {"measurement": "FFA concentration at eutectic point", "setting": "[1]", "result": 0.26, "unit": "µmol/mL"},
      {"measurement": "Ksp", "setting": "[1]", "result": 156.76, "unit": "μmol^2/mL^2"},
      {"measurement": "SAB", "setting": "[1]", "result": 12.52, "unit": "µmol/mL"},
      {"measurement": "FFA concentration at eutectic point", "setting": "DDW with PEG (1 mg/mL)", "result": 0.16, "unit": "µmol/mL"},
      {"measurement": "Ksp", "setting": "DDW with PEG (1 mg/mL)", "result": 136.09, "unit": "μmol^2/mL^2"},
      {"measurement": "SAB", "setting": "DDW with PEG (1 mg/mL)", "result": 11.67, "unit": "µmol/mL"},
      {"measurement": "Ratio of FFA concentration at eutectic point with parent drug", "setting": "DDW with PVP-VA (0.2 mg/mL)", "result": 23.20},
      {"measurement": "Ratio of cocrystal solubility with parent drug", "setting": "DDW with PVP-VA (0.2 mg/mL)", "result": 4805.23},
      {"measurement": "FFA concentration at eutectic point", "setting": "DDW with PVP-VA (0.2 mg/mL)", "result": 0.83, "unit": "µmol/mL"},
      {"measurement": "Ksp", "setting": "DDW with PVP-VA (0.2 mg/mL)", "result": 171.89, "unit": "μmol^2/mL^2"},
      {"measurement": "SAB", "setting": "DDW with PVP-VA (0.2 mg/mL)", "result": 13.11, "unit": "µmol/mL"},
      {"measurement": "Ratio of FFA concentration at eutectic point with parent drug", "setting": "DDW with SLP (0.2 mg/mL)", "result": 4.47},
      {"measurement": "Ratio of cocrystal solubility with parent drug", "setting": "DDW with SLP (0.2 mg/mL)", "result": 3218.49},
      {"measurement": "Ratio of FFA concentration at eutectic point with parent drug", "setting": "[2]", "result": 31.03},
      {"measurement": "Ratio of cocrystal solubility with parent drug", "setting": "[2]", "result": 6264.77},
      {"measurement": "FFA concentration at eutectic point", "setting": "[2]", "result": 1.11, "unit": "µmol/mL"},
      {"measurement": "Ksp", "setting": "[2]", "result": 224.10, "unit": "μmol^2/mL^2"},
      {"measurement": "SAB", "setting": "[2]", "result": 14.97, "unit": "µmol/mL"},
      {"measurement": "FFA concentration at eutectic point", "setting": "DDW with SLP (0.2 mg/mL)", "result": 0.16, "unit": "µmol/mL"},
      {"measurement": "Ratio of FFA concentration at eutectic point with parent drug", "setting": "DDW, pure solution", "result": 6.71},
      {"measurement": "Ratio of cocrystal solubility with parent drug", "setting": "DDW, pure solution", "result": 2649.04},
      {"measurement": "FFA concentration at eutectic point", "setting": "DDW, pure solution", "result": 0.24, "unit": "µmol/mL"},
      {"measurement": "Ksp", "setting": "DDW, pure solution", "result": 94.76, "unit": "μmol^2/mL^2"},
      {"measurement": "SAB", "setting": "DDW, pure solution", "result": 9.73, "unit": "µmol/mL"},
      {"measurement": "Ratio of FFA concentration at eutectic point with parent drug", "setting": "PBS pH 4.5, pure solution", "result": 2.46},
      {"measurement": "Ratio of cocrystal solubility with parent drug", "setting": "PBS pH 4.5, pure solution", "result": 1535.91},
      {"measurement": "FFA concentration at eutectic point", "setting": "PBS pH 4.5, pure solution", "result": 0.16, "unit": "µmol/mL"},
      {"measurement": "Ksp", "setting": "PBS pH 4.5, pure solution", "result": 99.78, "unit": "μmol^2/mL^2"},
      {"measurement": "SAB", "setting": "PBS pH 4.5, pure solution", "result": 9.99, "unit": "µmol/mL"},
      {"measurement": "Ratio of FFA concentration at eutectic point with parent drug", "setting": "PBS pH 4.5 with PEG (1 mg/mL)", "result": 4.93},
      {"measurement": "Ratio of cocrystal solubility with parent drug", "setting": "PBS pH 4.5 with PEG (1 mg/mL)", "result": 1601.02},
      {"measurement": "Ratio of FFA concentration at eutectic point with parent drug", "setting": "[3]", "result": 10.16},
      {"measurement": "Ratio of cocrystal solubility with parent drug", "setting": "[3]", "result": 2171.41},
      {"measurement": "FFA concentration at eutectic point", "setting": "[3]", "result": 0.66, "unit": "µmol/mL"},
      {"measurement": "Ksp", "setting": "[3]", "result": 141.26, "unit": "μmol^2/mL^2"},
      {"measurement": "SAB", "setting": "[3]", "result": 11.89, "unit": "µmol/mL"},
      {"measurement": "FFA concentration at eutectic point", "setting": "PBS pH 4.5 with PEG (1 mg/mL)", "result": 0.32, "unit": "µmol/mL"},
      {"measurement": "Ksp", "setting": "PBS pH 4.5 with PEG (1 mg/mL)", "result": 104.01, "unit": "μmol^2/mL^2"},
      {"measurement": "SAB", "setting": "PBS pH 4.5 with PEG (1 mg/mL)", "result": 10.20, "unit": "µmol/mL"},
      {"measurement": "Ratio of FFA concentration at eutectic point with parent drug", "setting": "[4]", "result": 6.93},
      {"measurement": "Ratio of cocrystal solubility with parent drug", "setting": "[4]", "result": 2040.80},
      {"measurement": "FFA concentration at eutectic point", "setting": "[4]", "result": 0.45, "unit": "µmol/mL"},
      {"measurement": "Ksp", "setting": "[4]", "result": 132.58, "unit": "μmol^2/mL^2"},
      {"measurement": "SAB", "setting": "[4]", "result": 11.51, "unit": "µmol/mL"},
      {"measurement": "Ratio of FFA concentration at eutectic point with parent drug", "setting": "[5]", "result": 2.46},
      {"measurement": "Ratio of cocrystal solubility with parent drug", "setting": "[5]", "result": 1772.19},
      {"measurement": "Ratio of FFA concentration at eutectic point with parent drug", "setting": "[6]", "result": 10.16},
      {"measurement": "Ratio of cocrystal solubility with parent drug", "setting": "[6]", "result": 2443.18},
      {"measurement": "FFA concentration at eutectic point", "setting": "[6]", "result": 0.66, "unit": "µmol/mL"},
      {"measurement": "Ksp", "setting": "[6]", "result": 158.72, "unit": "μmol^2/mL^2"},
      {"measurement": "SAB", "setting": "[6]", "result": 12.60, "unit": "µmol/mL"},
      {"measurement": "FFA concentration at eutectic point", "setting": "[5]", "result": 0.16, "unit": "µmol/mL"},
      {"measurement": "potential increase in the FFA solubility based on FFA concentration at eutectic point", "setting": "in DDW", "result": 30, "unit": "fold"},
      {"measurement": "potential increase in the FFA solubility based on FFA concentration at eutectic point", "setting": "in PBS pH 4.5", "result": "tenfold"},
      {"measurement": "increase of the FFA solubility achieved by cocrystal (by Eq. 1 cocrystal solubility)", "setting": "in some cases, Table III", "result": "> 1000", "unit": "fold"}
    ]}
  ]
}
